In patent US20090264433A1, “Compounds, Compositions and Methods Comprising Triazine Derivatives” (Institute for OneWorld Health, priority 2008, published 2009) one finds IC50 data, which are given here for 13 molecules.

A word on the IC50: it is the concentration that inhibits the measured activity by half. A low value points to greater potency.

Counter-ions that a name gives are not always drawn.

T1 sequence (P13569 whole entry): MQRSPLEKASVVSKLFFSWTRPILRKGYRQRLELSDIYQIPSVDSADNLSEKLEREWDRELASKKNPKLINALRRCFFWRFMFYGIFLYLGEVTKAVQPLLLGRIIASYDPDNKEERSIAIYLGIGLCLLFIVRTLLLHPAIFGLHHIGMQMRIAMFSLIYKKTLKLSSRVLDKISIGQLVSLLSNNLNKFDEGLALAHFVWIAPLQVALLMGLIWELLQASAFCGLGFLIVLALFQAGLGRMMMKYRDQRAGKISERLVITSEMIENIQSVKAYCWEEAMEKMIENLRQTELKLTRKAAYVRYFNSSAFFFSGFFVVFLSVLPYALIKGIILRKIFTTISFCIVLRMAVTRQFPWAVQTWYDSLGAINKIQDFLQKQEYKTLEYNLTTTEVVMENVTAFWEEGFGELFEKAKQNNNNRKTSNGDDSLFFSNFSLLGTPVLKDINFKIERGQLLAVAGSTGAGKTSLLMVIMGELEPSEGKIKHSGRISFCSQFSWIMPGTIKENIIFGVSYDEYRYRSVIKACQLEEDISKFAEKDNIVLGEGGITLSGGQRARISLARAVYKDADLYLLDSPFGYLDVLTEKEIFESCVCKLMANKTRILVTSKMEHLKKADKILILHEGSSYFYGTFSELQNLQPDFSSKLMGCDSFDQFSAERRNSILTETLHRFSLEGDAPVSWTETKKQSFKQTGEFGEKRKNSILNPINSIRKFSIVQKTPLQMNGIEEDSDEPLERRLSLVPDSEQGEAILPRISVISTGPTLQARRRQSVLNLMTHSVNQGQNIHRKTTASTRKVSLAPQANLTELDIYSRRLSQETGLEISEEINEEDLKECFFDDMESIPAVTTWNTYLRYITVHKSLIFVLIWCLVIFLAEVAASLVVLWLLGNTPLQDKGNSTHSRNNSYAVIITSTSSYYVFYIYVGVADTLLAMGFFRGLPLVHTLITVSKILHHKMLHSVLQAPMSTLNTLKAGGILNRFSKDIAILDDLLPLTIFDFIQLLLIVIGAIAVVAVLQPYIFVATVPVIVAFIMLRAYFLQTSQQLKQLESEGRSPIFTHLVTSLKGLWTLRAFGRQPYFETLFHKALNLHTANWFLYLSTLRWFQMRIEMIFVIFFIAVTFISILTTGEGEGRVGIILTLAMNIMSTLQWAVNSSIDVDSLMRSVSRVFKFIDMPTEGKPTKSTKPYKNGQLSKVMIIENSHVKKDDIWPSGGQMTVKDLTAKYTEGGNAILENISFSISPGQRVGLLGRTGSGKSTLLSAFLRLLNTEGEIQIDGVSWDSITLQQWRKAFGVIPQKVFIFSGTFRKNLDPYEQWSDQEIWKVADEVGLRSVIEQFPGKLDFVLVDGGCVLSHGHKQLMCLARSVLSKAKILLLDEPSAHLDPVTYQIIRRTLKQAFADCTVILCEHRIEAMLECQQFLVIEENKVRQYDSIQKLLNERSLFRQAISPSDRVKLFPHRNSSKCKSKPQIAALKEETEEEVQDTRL

The test addresses T1, CFTR channel in human colonic T84 cells (Homo sapiens, UniProt P13569).
T1 construct: results in the phosphorylation and opening of CFTR anion channels; host or cells: human colonic T84 cells
Description: T84 assay (FLIPR membrane potential dye, forskolin/IBMX-stimulated CFTR). In kind it is cell-based. The settings on record: average of at least 2 runs unless annotated n = 1. A digest of the protocol: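 T84 cells (25,000/well, grown overnight) were washed in HBSS with 10 mM Hepes, then loaded with FLIPR Red membrane potential dye for 45 min with or without compound. CFTR was stimulated with 10 μM forskolin plus 100 μM IBMX after a 10 s baseline. Depolarization was tracked as a fluorescence increase, read every second for 150 s.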
The molecule `CC(C)(C)C(=O)N1CCN(Cc2ccc(COc3ncc(-c4cc(Cl)c(O)c(Cl)c4)nn3)cc2)CC1` [Compound 188, 1-(4-(4-((6-(3,5-dichloro-4-hydroxyphenyl)-1,2,4-triazin-3-yloxy)methyl)benzyl)piperazin1-yl)-2,2-dimethylpropan-1-one] registered a half-maximal inhibitory concentration (IC50) of 10.3 µM.

Take `Oc1c(Br)cc(-c2cnc(OCc3ccncc3)nn2)cc1Br` [Compound 106, 2,6-dibromo-4-(3-(pyridin-4-ylmethoxy)-1,2,4-triazin-6-yl)phenol]: it took 18.1 µM to reach half-maximal inhibition (IC50).

`Oc1c(Cl)cc(-c2cnc(OCc3ccc(Cl)cc3)nn2)cc1Cl` [Compound 113, 2,6-dichloro-4-(3-(4-chlorobenzyloxy)-1,2,4-triazin-6-yl)phenol] came in with an IC50 of 1.3 µM.

For `Cc1ccc(C)c(OCc2ncc(-c3cc(Br)c(O)c(Br)c3)nn2)c1` [Compound 52, 2,6-dibromo-4-(3-((2,5-dimethylphenoxy)methyl)-1,2,4-triazin-6-yl)phenol], the 50% inhibitory concentration (IC50) came to 19.8 µM.

Consider `CN(C)c1cccc(COc2ncc(-c3cc(Cl)c(O)c(Cl)c3)nn2)c1` [Compound 119, 2,6-dichloro-4-(3-(3-(dimethylamino)benzyloxy)-1,2,4-triazin-6-yl)phenol], for which the IC50 came to 3.4 µM.

`Oc1c(Br)cc(-c2cnc(Cc3cccc4ccccc34)nn2)cc1Br` [Compound 130, 2,6-dibromo-4-(3-(naphthalen-1-ylmethyl)-1,2,4-triazin-6-yl)phenol] returned an IC50 of 28.9 µM.

With `Cc1ccc(C(C)C)cc1OCc1ncc(-c2cc(Br)c(O)c(Br)c2)nn1` [Compound 53, 2,6-dibromo-4-(3-((5-isopropyl-2-methylphenoxy)methyl)-1,2,4-triazin-6-yl)phenol], it took 20.1 µM to reach half-maximal inhibition (IC50).

For `Oc1c(Cl)cc(-c2cnc(OCc3ccc(CN4CCCc5ccccc54)cc3)nn2)cc1Cl` [Compound 182], the IC50 worked out at 11.8 µM.

`Oc1c(Br)cc(-c2cnc(COc3ccc4c(c3)CCC4)nn2)cc1Br` [Compound 48, 2,6-dibromo-4-(3-((2,3-dihydro-1H-inden-5-yloxy)methyl)-1,2,4-triazin-6-yl)phenol] yielded an IC50 of 14.8 µM.

Molecule `CN1CCN(c2ccc(CNc3ncc(-c4cc(Cl)c(O)c(Cl)c4)nn3)cc2)CC1` [Compound 137, 2,6-dichloro-4-(3-(4-(4-methylpiperazin-1-yl)benzylamino)-1,2,4-triazin-6-yl)phenol, formate salt] had a concentration for half-maximal inhibition (IC50) of 21.3 µM.

`Oc1c(Cl)cc(-c2cnc(OCc3ccc(CNCc4ccc(C(F)(F)F)nc4)cc3)nn2)cc1Cl` [Compound 169, 2,6-dichloro-4-(3-(4-(((6-(trifluoromethyl)pyridin-3-yl)methylamino)methyl)benzyl-oxy)-1,2,4-triazin-6-yl)phenol] displayed a concentration for half-maximal inhibition (IC50) of 7.77 µM.

As to `Oc1c(Br)cc(-c2cnc(OCc3cccc(Br)c3)nn2)cc1Br` [Compound 25, 2,6-dibromo-4-(3-(3-bromobenzyloxy)-1,2,4-triazin-6-yl)phenol], the half-maximal inhibitory concentration (IC50) came out at 19.8 µM.

`Oc1c(Cl)cc(-c2cnc(OCc3ccc(CN4CCN(c5ccc(F)cc5F)CC4)cc3)nn2)cc1Cl` [Compound 151, 2,6-dichloro-4-(3-(4-((4-(2,4-difluorophenyl)piperazin-1-yl)methyl)benzyloxy)-1,2,4-triazin-6-yl)phenol] had a concentration for half-maximal inhibition (IC50) of 1.92 µM.
